Reference: ChEMBL document CHEMBL4507273 (2021)

How the values were obtained:
[1] = test system: Tyrosine-protein kinase ABL1 (Homo sapiens), P00519 [F317L]; conditions: Compound concentration 1000.0 nM
[2] = target: 5-hydroxytryptamine receptor 2A (Homo sapiens, UniProt P28223); conditions: Compound concentration 10.0 uM
[3] = target: Serine/threonine-protein kinase ULK2 (Homo sapiens) (UniProt Q8IYT8); conditions: Compound concentration 1000.0 nM
[4] = target: Cyclin-dependent kinase 16 (Homo sapiens) (UniProt Q00536); conditions: Compound concentration 1000.0 nM
[5] = target: Aurora kinase C (Homo sapiens) (UniProt Q9UQB9); conditions: Compound concentration 1000.0 nM
[6] = target: T1, Alpha-2B adrenergic receptor (Homo sapiens, UniProt P18089); assay: GPCRScan assay: inhibition of Alpha2B; design: radioligand conc. used [nm] 1.5 – 2.0, parental cells HEKT
T1 sequence (P18089 whole entry): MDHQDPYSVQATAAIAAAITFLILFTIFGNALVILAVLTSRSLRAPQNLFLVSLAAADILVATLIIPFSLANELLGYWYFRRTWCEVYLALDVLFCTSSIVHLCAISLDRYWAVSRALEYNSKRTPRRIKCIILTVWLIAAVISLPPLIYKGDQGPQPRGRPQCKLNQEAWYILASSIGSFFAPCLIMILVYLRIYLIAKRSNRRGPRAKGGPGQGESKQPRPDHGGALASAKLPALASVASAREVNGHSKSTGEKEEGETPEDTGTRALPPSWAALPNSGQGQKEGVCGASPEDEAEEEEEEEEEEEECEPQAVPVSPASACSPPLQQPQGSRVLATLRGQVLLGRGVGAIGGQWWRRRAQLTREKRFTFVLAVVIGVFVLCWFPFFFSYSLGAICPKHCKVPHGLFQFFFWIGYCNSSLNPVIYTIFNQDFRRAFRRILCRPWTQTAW

[7] = target: Phosphatidylinositol 4,5-bisphosphate 3-kinase catalytic subunit alpha isoform (Homo sapiens) (UniProt P42336); conditions: Compound concentration 1000.0 nM
[8] = test system: Tyrosine-protein kinase ABL1 (Homo sapiens), P00519 [F317L]; conditions: Compound concentration 1000.0 nM; remark: listed apart in the source
[9] = target: Receptor-interacting serine/threonine-protein kinase 4 (Homo sapiens) (UniProt P57078); conditions: Compound concentration 1000.0 nM
[10] = target: Serine/threonine-protein kinase NIM1 (Homo sapiens) (UniProt Q8IY84); conditions: Compound concentration 1000.0 nM
Serine/threonine-protein kinase NIM1 (Homo sapiens), sequence (Q8IY84 whole entry): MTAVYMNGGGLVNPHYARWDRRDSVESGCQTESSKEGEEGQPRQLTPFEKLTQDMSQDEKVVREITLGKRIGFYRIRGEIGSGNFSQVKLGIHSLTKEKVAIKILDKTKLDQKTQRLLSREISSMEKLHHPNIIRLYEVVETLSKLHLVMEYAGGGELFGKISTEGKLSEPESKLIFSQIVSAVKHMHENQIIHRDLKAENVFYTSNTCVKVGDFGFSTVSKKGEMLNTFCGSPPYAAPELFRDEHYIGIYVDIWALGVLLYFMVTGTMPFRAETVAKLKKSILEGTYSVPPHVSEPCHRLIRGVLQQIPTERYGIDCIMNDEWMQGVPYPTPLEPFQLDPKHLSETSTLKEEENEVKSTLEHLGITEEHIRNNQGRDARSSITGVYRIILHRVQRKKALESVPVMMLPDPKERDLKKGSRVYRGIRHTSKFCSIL

[11] = target: Tyrosine-protein kinase Lyn (Homo sapiens) (UniProt P07948); conditions: Compound concentration 1000.0 nM
[12] = target: Tyrosine-protein kinase Tec (Homo sapiens) (UniProt P42680); conditions: Compound concentration 1000.0 nM
[13] = target: Homeodomain-interacting protein kinase 4 (Homo sapiens) (UniProt Q8NE63); conditions: Compound concentration 1000.0 nM
[14] = target: Insulin receptor (Homo sapiens) (UniProt P06213); conditions: Compound concentration 1000.0 nM
D(1A) dopamine receptor = D(1A) dopamine receptor (Homo sapiens, UniProt P21728); conditions: Compound concentration 10.0 uM
[15] = target: T2, Alpha-1A adrenergic receptor (Homo sapiens, UniProt P35348); assay: GPCRScan assay: inhibition of Alpha1A; design: radioligand conc. used [nm] 0.2 - 1.0, parental cells stable HEK
T2 sequence (P35348 whole entry): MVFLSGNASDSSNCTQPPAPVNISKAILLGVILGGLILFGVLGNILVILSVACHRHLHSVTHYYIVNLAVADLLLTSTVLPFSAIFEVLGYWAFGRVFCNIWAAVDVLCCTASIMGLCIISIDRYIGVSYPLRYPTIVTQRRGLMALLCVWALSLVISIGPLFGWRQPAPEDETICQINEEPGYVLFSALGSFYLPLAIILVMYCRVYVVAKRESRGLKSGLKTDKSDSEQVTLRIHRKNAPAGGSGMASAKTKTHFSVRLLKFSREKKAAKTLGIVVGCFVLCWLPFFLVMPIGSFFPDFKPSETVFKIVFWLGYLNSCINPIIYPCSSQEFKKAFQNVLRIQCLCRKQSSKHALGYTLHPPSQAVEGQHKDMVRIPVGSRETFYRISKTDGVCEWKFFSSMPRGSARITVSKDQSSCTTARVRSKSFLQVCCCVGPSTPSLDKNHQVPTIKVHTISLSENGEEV

[16] = target: Wee1-like protein kinase 2 (Homo sapiens) (UniProt P0C1S8); conditions: Compound concentration 1000.0 nM
[17] = target: Casein kinase I isoform gamma-1 (Homo sapiens) (UniProt Q9HCP0); conditions: Compound concentration 1000.0 nM
[18] = target: MAP/microtubule affinity-regulating kinase 3 (Homo sapiens) (UniProt P27448); conditions: Compound concentration 1000.0 nM
[19] = target: Receptor tyrosine-protein kinase erbB-4 (Homo sapiens) (UniProt Q15303); conditions: Compound concentration 1000.0 nM
Receptor tyrosine-protein kinase erbB-4 (Homo sapiens), sequence (Q15303 whole entry): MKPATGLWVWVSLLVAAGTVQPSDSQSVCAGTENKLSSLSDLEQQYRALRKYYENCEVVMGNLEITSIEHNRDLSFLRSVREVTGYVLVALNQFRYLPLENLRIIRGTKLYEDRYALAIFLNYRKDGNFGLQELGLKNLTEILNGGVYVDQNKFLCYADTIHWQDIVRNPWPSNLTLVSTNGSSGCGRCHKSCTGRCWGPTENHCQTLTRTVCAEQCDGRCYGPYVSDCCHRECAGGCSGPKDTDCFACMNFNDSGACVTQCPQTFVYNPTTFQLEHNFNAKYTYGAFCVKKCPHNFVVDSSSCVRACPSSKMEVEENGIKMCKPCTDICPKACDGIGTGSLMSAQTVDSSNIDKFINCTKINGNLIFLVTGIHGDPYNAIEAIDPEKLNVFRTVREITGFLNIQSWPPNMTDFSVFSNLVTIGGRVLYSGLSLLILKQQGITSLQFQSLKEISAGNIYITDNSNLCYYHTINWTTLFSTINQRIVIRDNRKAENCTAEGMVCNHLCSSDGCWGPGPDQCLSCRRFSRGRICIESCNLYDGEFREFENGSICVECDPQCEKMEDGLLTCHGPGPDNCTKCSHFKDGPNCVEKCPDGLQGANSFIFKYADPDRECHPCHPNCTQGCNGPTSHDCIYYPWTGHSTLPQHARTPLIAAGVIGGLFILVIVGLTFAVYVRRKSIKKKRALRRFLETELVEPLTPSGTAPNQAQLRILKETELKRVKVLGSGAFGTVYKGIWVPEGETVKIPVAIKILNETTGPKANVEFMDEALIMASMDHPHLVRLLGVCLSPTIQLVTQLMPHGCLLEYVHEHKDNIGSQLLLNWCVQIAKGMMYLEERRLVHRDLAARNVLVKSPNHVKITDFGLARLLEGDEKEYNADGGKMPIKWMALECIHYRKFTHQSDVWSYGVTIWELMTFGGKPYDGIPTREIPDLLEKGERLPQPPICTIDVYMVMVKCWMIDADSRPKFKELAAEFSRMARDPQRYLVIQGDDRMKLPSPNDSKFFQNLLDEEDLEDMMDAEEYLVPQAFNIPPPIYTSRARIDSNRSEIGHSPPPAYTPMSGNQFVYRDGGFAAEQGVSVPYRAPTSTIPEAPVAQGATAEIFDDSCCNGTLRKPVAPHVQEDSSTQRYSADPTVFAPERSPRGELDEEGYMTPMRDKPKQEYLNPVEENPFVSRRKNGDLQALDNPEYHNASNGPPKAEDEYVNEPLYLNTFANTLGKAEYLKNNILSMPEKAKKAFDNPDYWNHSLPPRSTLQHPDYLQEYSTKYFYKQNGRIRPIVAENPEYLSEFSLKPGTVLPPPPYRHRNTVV

[20] = target: Serine/threonine-protein kinase RIO1 (Homo sapiens) (UniProt Q9BRS2); conditions: Compound concentration 1000.0 nM
[21] = target: AP2-associated protein kinase 1 (Homo sapiens) (UniProt Q2M2I8); conditions: Compound concentration 1000.0 nM
[22] = target: Mitotic checkpoint serine/threonine-protein kinase BUB1 (Homo sapiens) (UniProt O43683); conditions: Compound concentration 1000.0 nM
[23] = target: Receptor tyrosine-protein kinase erbB-3 (Homo sapiens) (UniProt P21860); conditions: Compound concentration 1000.0 nM
[24] = target: Ephrin type-A receptor 6 (Homo sapiens) (UniProt Q9UF33); conditions: Compound concentration 1000.0 nM
[25] = target: Insulin-like growth factor 1 receptor (Homo sapiens) (UniProt P08069); conditions: Compound concentration 1000.0 nM
[26] = target: Ribosomal protein S6 kinase alpha-2 (Homo sapiens) (UniProt Q15349); conditions: Compound concentration 1000.0 nM
[27] = target: Serine/threonine-protein kinase Nek9 (Homo sapiens) (UniProt Q8TD19); conditions: Compound concentration 1000.0 nM
[28] = target: Bone morphogenetic protein receptor type-1A (Homo sapiens) (UniProt P36894); conditions: Compound concentration 1000.0 nM
[29] = target: Glycogen synthase kinase-3 alpha (Homo sapiens) (UniProt P49840); conditions: Compound concentration 1000.0 nM
[30] = target: Ephrin type-A receptor 5 (Homo sapiens) (UniProt P54756); conditions: Compound concentration 1000.0 nM
Ephrin type-A receptor 5 (Homo sapiens), sequence (P54756 whole entry): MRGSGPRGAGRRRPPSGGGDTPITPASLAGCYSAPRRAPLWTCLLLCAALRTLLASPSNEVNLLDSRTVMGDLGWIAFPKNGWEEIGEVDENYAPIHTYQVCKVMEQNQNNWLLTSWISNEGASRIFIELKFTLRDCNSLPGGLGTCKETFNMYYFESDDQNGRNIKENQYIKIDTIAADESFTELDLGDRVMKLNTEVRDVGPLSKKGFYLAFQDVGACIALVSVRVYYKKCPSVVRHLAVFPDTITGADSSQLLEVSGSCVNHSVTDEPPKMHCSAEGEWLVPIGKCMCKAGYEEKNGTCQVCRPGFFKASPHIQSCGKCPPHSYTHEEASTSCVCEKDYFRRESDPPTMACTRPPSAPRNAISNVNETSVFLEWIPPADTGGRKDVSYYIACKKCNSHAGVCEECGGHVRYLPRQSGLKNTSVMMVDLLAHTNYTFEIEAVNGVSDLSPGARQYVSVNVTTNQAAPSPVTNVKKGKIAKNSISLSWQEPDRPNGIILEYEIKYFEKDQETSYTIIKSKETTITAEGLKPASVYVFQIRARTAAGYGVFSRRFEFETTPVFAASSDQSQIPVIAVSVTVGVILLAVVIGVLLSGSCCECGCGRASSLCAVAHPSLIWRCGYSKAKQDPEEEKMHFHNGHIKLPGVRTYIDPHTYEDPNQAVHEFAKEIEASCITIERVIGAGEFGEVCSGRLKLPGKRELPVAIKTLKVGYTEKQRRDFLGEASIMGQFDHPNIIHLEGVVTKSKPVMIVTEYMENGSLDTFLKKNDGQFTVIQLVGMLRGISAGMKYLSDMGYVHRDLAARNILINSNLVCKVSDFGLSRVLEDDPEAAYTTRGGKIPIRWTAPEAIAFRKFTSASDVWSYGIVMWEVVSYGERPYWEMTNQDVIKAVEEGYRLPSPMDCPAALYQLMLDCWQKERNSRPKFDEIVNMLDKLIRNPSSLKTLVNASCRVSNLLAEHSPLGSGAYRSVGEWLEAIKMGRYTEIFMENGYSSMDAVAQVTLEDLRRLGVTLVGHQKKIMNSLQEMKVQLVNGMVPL

[31] = target: Activin receptor type-1 (Homo sapiens) (UniProt Q04771); conditions: Compound concentration 1000.0 nM
Activin receptor type-1 (Homo sapiens), sequence (Q04771 whole entry): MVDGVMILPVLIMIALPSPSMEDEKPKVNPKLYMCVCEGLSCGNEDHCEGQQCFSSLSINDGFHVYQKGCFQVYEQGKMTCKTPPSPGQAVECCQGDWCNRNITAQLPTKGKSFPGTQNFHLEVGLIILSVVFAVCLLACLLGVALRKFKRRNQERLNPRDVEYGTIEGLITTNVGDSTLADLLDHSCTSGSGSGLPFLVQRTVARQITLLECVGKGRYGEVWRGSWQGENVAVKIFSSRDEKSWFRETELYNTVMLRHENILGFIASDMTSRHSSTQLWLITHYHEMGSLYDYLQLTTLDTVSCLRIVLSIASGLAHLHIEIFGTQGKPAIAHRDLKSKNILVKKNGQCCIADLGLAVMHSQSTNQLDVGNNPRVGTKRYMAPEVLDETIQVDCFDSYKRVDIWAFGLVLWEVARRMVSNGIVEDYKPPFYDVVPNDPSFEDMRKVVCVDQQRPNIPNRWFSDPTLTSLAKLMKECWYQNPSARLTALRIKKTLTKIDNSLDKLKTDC

[32] = target: Protein kinase C eta type (Homo sapiens) (UniProt P24723); conditions: Compound concentration 1000.0 nM
Protein kinase C eta type (Homo sapiens), sequence (P24723 whole entry): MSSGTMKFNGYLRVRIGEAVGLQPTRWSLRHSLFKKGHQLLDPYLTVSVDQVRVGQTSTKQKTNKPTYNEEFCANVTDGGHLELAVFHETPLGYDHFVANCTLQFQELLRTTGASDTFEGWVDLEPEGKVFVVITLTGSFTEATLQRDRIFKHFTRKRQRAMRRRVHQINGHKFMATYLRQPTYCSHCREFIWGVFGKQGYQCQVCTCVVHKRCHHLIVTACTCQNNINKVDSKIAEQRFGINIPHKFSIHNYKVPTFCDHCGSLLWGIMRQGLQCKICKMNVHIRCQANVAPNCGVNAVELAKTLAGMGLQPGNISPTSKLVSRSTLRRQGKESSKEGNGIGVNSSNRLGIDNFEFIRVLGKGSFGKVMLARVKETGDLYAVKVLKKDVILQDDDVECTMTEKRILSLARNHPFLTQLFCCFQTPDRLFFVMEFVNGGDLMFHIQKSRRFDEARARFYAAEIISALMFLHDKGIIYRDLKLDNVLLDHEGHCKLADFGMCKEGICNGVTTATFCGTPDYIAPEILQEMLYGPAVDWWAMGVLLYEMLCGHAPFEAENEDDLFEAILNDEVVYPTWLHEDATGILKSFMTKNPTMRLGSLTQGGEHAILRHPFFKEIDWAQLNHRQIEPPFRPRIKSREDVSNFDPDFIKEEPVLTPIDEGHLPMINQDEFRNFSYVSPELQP

Tyrosine-protein kinase ABL1 (Homo sapiens), P00519 [F317L], sequence (P00519 whole entry F317L): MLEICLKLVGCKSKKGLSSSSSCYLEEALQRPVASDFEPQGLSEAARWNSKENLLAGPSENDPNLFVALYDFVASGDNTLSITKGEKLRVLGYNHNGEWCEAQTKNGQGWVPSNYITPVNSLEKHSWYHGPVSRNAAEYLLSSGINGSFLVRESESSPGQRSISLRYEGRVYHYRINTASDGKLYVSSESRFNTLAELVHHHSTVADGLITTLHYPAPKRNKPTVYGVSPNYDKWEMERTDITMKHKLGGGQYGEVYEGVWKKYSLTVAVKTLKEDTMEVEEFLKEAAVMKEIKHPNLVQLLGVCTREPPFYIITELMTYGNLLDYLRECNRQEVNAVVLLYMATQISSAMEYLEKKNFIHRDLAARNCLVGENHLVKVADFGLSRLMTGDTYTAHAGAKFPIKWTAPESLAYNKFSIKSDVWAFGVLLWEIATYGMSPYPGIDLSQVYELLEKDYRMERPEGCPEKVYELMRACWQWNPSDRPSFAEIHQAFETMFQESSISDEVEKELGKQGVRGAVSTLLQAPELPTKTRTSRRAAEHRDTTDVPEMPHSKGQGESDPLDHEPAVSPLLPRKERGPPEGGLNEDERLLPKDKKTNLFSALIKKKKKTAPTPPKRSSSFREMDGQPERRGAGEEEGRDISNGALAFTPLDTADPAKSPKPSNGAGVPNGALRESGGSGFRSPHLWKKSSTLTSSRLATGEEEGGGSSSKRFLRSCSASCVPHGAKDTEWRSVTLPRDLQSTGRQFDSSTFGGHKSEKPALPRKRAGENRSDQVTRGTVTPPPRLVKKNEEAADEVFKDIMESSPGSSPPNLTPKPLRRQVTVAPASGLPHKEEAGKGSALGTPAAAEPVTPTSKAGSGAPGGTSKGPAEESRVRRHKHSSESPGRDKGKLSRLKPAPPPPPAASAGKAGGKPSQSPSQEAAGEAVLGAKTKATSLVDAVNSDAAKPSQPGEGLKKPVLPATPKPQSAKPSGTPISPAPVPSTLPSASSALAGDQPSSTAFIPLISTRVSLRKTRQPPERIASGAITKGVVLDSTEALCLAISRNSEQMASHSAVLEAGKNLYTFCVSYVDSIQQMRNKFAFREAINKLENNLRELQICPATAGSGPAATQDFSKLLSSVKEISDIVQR

SMILES | residual activity [1] | inhibition [2] | residual activity [3] | residual activity [4] | residual activity [5] | Ki ([6]; read-out: Ki) | residual activity [7] | residual activity [8] | residual activity [9] | residual activity [10] | residual activity [11] | residual activity [12] | residual activity [13] | residual activity [14] | inhibition (D(1A) dopamine receptor) | Ki ([15]; read-out: Ki) | residual activity [16] | residual activity [17] | residual activity [18] | residual activity [19] | other results
CNCc1ccccc1-c1csc([C@@H](C)Nc2nc(C)nc3cc(OC)c(OC)cc23)c1 [BAY-293] | 100% | 98.5% | 100% | 87% | 92% | 1230 nM | 69% | 86% | 91% | 93% | 100% | 100% | 86% | 79% | 82.7% | 428 nM | 100% | 88% | 89% | 97% | residual activity [20]: 100%; residual activity [21]: 95%; residual activity [22]: 100%; residual activity [23]: 76%; residual activity [24]: 96%; residual activity [25]: 100%; residual activity [26]: 100%; residual activity [27]: 100%; residual activity [28]: 91%; residual activity [29]: 100%; residual activity [30]: 88%; residual activity [31]: 100%; residual activity [32]: 100%
CNCc1ccccc1-c1csc([C@H](C)Nc2nc(C)nc3cc(OC)c(OC)cc23)c1 [BAY-294] | 100% | 99.2% | 100% | 83% | 94% | 847 nM | 71% | 97% | 75% | 90% | 100% | 100% | 91% | 89% | 89.2% | 454 nM | 100% | 92% | 100% | 100% | Ki ([6]; read-out: pKi (converted)): 813 nM; Ki ([15]; read-out: pKi (converted)): 437 nM; residual activity [20]: 96%; residual activity [21]: 94%; residual activity [22]: 100%; residual activity [23]: 87%; residual activity [24]: 100%; residual activity [25]: 100%; residual activity [26]: 100%; residual activity [27]: 100%; residual activity [28]: 100%; residual activity [29]: 100%; residual activity [30]: 100%; residual activity [31]: 100%; residual activity [32]: 100%
